Data reported in patent US11596644B2, “Method for treating post-prandial hypoglycemia” (AVOLYNT, priority 2018, dated 2023).
Marks after values point to notes of the source that are not given here.

Tests used:
[1] = tested on: healthy adult male volunteers; test: Single dose study in humans, pharmacodynamic parameters after breakfast; format: in vivo, human
Procedure: Single dose study in humans. A single oral dose of 2 mg, 5 mg, 10 mg, 20 mg, 40 mg, 80 mg, and 160 mg of mizagliflozin were administered to healthy adult male volunteers by a placebo-controlled, randomized, double-blind method. The single dose was administered orally immediately before breakfast with approximately 200 mL of water after fasting for at least 10 hours. Pharmacodynamic effect parameters (blood glucose level, insulin, GLP-1, and gastric inhibitory polypeptide (GIP)) were measured. Concentrations at each time point were measured, and summary statistics and coefficient variation (CV) were calculated for AUC0-t; t was up to 6 hours postdose. The time points were: before administration and 0.5, 1, 1.5, 2, 3, 4, 5, and 6 hours after administration. Blood glucose level and insulin were measured to evaluate in an exploratory manner the inhibitory effect on postprandial hyperglycemia. GLP-1 and GIP were measured to evaluate in an exploratory manner the incretin secretory action.

[2] = tested on: STZ-induced diabetic rats; test: OGTT in STZ-induced diabetic rats (Example 8); format: in vivo, rat; details: for Plasma glucose 0 hr: before dosing; for Plasma glucose 0 hr / Plasma glucose 0.5 hr / Plasma glucose 1 hr / Plasma glucose 2 hr / Plasma glucose 3 hr / ΔAUC (0-1) / ΔAUC (0-1) (% of Control): glucose 2 g/kg, mean ± S.E.M.
Procedure: Study in diabetic rats with glucose. Diabetic rats, induced by intravenous injection of streptozotocin (STZ; 40 mg/kg), were used to determining plasma glucose concentration (PG) 1 hr after oral glucose tolerance test (OGTT). […] Blood was collected via the caudal artery immediately before dosing and 0.5, 1, 2, and 3 hr after dosing. The glucose concentration measurement in plasma used Glucose CII-Test Wako kit (Wako Pure Chemicals Industries, Ltd., Osaka, Japan). The variables used for efficacy assessment were the measurement values of the plasma glucose concentration and the area under the curve for plasma glucose concentration through 1 hr after loading (ΔAUC0-1 hr). The ΔAUC0-1 hr for plasma glucose was calculated based on the trapezoid method using the change of plasma glucose concentrations from pre-value (0 hr).

[3] = single oral dose 2 mg before breakfast
[4] = single oral dose 5 mg before breakfast
[5] = single oral dose 10 mg before breakfast
[6] = single oral dose 20 mg before breakfast
[7] = single oral dose 40 mg before breakfast
[8] = single oral dose 80 mg before breakfast
[9] = single oral dose 160 mg before breakfast

SMILES: Cc1cc(OCCCNCC(C)(C)C(N)=O)ccc1Cc1c(O[C@@H]2O[C@H](CO)[C@@H](O)[C@H](O)[C@H]2O)n[nH]c1C(C)C [mizagliflozin, 3-(3-{4-[3-(β-D-glucopyranosyloxy)-5-isopropyl-1H-pyrazol-4-ylmethyl-]-3-methylphenoxy}propylamino)-2,2-dimethylpropionamide]
- AUC 0-6 GIP [1, 3]: 818.5 pg·h/mL
- AUC 0-6 GLP-1 (active) [1, 3]: 23.7 pmol·h/L
- AUC 0-6 Insulin [1, 3]: 123.2 uU*h/ml
- AUC 0-6 glucose [1, 3]: 628.3 mg·h/dL
- GIP (peak) [1, 3]: 183.6 pg/mL
- GLP-1 (active) (peak) [1, 3]: 6.4 pmol/L
- Glucose (peak) [1, 3]: 128.7 mg/dL
- Insulin (peak) [1, 3]: 40.38 uU/ml
- Time (h) to peak, GIP [1, 3]: 4 h
- Time (h) to peak, GLP-1 (active) [1, 3]: 0.5 h
- Time (h) to peak, glucose [1, 3]: 1.5 h
- Time (h) to peak, insulin [1, 3]: 1.5 h
- AUC 0-6 GIP [1, 4]: 856.9 pg·h/mL
- AUC 0-6 GLP-1 (active) [1, 4]: 28.5 pmol·h/L
- AUC 0-6 Insulin [1, 4]: 140.7 uU*h/ml
- AUC 0-6 glucose [1, 4]: 631.3 mg·h/dL
- GIP (peak) [1, 4]: 194.5 pg/mL
- GLP-1 (active) (peak) [1, 4]: 6.1 pmol/L
- Glucose (peak) [1, 4]: 130.3 mg/dL
- Insulin (peak) [1, 4]: 47.1 uU/ml
- Time (h) to peak, GIP [1, 4]: 3 h
- Time (h) to peak, GLP-1 (active) [1, 4]: 0.5 h
- Time (h) to peak, glucose [1, 4]: 1 h
- Time (h) to peak, insulin [1, 4]: 1.5 h
- AUC 0-6 GIP [1, 5]: 945.7 pg·h/mL
- AUC 0-6 GLP-1 (active) [1, 5]: 41.5 pmol·h/L
- AUC 0-6 Insulin [1, 5]: 120.4 uU*h/ml
- AUC 0-6 glucose [1, 5]: 661.9 mg·h/dL
- GIP (peak) [1, 5]: 252.3 pg/mL
- GLP-1 (active) (peak) [1, 5]: 8.7 pmol/L
- Glucose (peak) [1, 5]: 143.8 mg/dL
- Insulin (peak) [1, 5]: 39 uU/ml
- Time (h) to peak, GIP [1, 5]: 4 h
- Time (h) to peak, GLP-1 (active) [1, 5]: 0.5 h
- Time (h) to peak, glucose [1, 5]: 1.5 h
- Time (h) to peak, insulin [1, 5]: 2 h
- AUC 0-6 GIP [1, 6]: 783.9 pg·h/mL
- AUC 0-6 GLP-1 (active) [1, 6]: 55.8 pmol·h/L
- AUC 0-6 Insulin [1, 6]: 89.7 uU*h/ml
- AUC 0-6 glucose [1, 6]: 612.9 mg·h/dL
- GIP (peak) [1, 6]: 216.7 pg/mL
- GLP-1 (active) (peak) [1, 6]: 11.6 pmol/L
- Glucose (peak) [1, 6]: 113.7 mg/dL
- Insulin (peak) [1, 6]: 25.9 uU/ml
- Time (h) to peak, GIP [1, 6]: 4 h
- Time (h) to peak, GLP-1 (active) [1, 6]: 1.5 h
- Time (h) to peak, glucose [1, 6]: 2 h
- Time (h) to peak, insulin [1, 6]: 3 h
- AUC 0-6 GIP [1, 7]: 591.4 pg·h/mL
- AUC 0-6 GLP-1 (active) [1, 7]: 32.6 pmol·h/L
- AUC 0-6 Insulin [1, 7]: 99.7 uU*h/ml
- AUC 0-6 glucose [1, 7]: 629.1 mg·h/dL
- GIP (peak) [1, 7]: 166.7 pg/mL
- GLP-1 (active) (peak) [1, 7]: 7.5 pmol/L
- Glucose (peak) [1, 7]: 130.3 mg/dL
- Insulin (peak) [1, 7]: 33.8 uU/ml
- Time (h) to peak, GIP [1, 7]: 4 h
- Time (h) to peak, GLP-1 (active) [1, 7]: 0.5 h
- Time (h) to peak, glucose [1, 7]: 1.5 h
- Time (h) to peak, insulin [1, 7]: 1.5 h
- AUC 0-6 GIP [1, 8]: 621.5 pg·h/mL
- AUC 0-6 GLP-1 (active) [1, 8]: 24.1 pmol·h/L
- AUC 0-6 Insulin [1, 8]: 70.9 uU*h/ml
- AUC 0-6 glucose [1, 8]: 611.92 mg·h/dL
- GIP (peak) [1, 8]: 161.6 pg/mL
- GLP-1 (active) (peak) [1, 8]: 5.5 pmol/L
- Glucose (peak) [1, 8]: 116 mg/dL
- Insulin (peak) [1, 8]: 20.5 uU/ml
- Time (h) to peak, GIP [1, 8]: 5 h
- Time (h) to peak, GLP-1 (active) [1, 8]: 2 h
- Time (h) to peak, glucose [1, 8]: 3 h
- Time (h) to peak, insulin [1, 8]: 3 h
- AUC 0-6 GIP [1, 9]: 445.5 pg·h/mL
- AUC 0-6 GLP-1 (active) [1, 9]: 39.5 pmol·h/L
- AUC 0-6 Insulin [1, 9]: 62.7 uU*h/ml
- AUC 0-6 glucose [1, 9]: 606.2 mg·h/dL
- GIP (peak) [1, 9]: 117.9 pg/mL
- GLP-1 (active) (peak) [1, 9]: 7.9 pmol/L
- Glucose (peak) [1, 9]: 106.5 mg/dL
- Insulin (peak) [1, 9]: 16.2 uU/ml
- Time (h) to peak, GIP [1, 9]: 5 h
- Time (h) to peak, GLP-1 (active) [1, 9]: 2 h
- Time (h) to peak, glucose [1, 9]: 3 h
- Time (h) to peak, insulin [1, 9]: 3 h
- Plasma glucose 0 hr ([2]; 0.03 mg/kg oral): 128 ± 10 mg/dL
- Plasma glucose 0.5 hr ([2]; 0.03 mg/kg oral): 356 ± 25 mg/dL
- Plasma glucose 1 hr ([2]; 0.03 mg/kg oral): 371 ± 33 mg/dL
- Plasma glucose 2 hr ([2]; 0.03 mg/kg oral): 172 ± 29 mg/dL
- Plasma glucose 3 hr ([2]; 0.03 mg/kg oral): 91 ± 12 mg/dL
- ΔAUC (0-1) ([2]; 0.03 mg/kg oral): 174 ± 17 mg·h/dL
- ΔAUC (0-1) (% of Control) ([2]; 0.03 mg/kg oral): 90 ± 9 % of Control
- Plasma glucose 0 hr ([2]; 0.1 mg/kg oral): 120 ± 12 mg/dL
- Plasma glucose 0.5 hr ([2]; 0.1 mg/kg oral): 262 ± 27^y mg/dL
- Plasma glucose 1 hr ([2]; 0.1 mg/kg oral): 305 ± 43 mg/dL
- Plasma glucose 2 hr ([2]; 0.1 mg/kg oral): 238 ± 53 mg/dL
- Plasma glucose 3 hr ([2]; 0.1 mg/kg oral): 137 ± 26 mg/dL
- ΔAUC (0-1) ([2]; 0.1 mg/kg oral): 117 ± 18^x mg · dL^−1 · hr
- ΔAUC (0-1) (% of Control) ([2]; 0.1 mg/kg oral): 60 ± 9^x % of Control
- PG elevation after glucose administration ([2]; 0.03 and 0.1 mg/kg oral, OGTT 2 g/kg): inhibited PG elevation after glucose administration dose dependently
